What was measured:
hCA II = target: T1, hCA II (Homo sapiens, UniProt P00918); assay: stopped-flow CO2 hydrase assay; format: biochemical; conditions: read-out: KI (nM) ^1 / CAII
T1 construct: gene CA2; recombinant, obtained in-house

hCA I = target: T2, hCA I (Homo sapiens, UniProt P00915); assay: stopped-flow CO2 hydrase assay; format: biochemical; conditions: read-out: KI (nM) ^1 / CAI
T2 construct: gene CA1; recombinant, obtained in-house
T2 sequence (P00915 2-261): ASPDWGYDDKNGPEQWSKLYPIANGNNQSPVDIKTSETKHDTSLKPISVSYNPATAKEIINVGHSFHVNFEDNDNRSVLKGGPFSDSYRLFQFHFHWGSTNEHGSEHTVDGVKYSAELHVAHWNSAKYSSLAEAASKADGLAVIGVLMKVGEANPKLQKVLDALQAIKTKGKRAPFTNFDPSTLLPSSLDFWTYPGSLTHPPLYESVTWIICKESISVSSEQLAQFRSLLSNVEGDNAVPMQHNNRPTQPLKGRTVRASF

Ki (hCA II) [nM] | Ki (hCA I) [nM] | Structure (SMILES)
4.41 | 18.5 | NS(=O)(=O)c1ccc(C(=O)N2CCC(C(=O)N/N=C/c3ccccc3)CC2)cc1 [compound 5, (E)-4-(4-(2-benzylidenehydrazinecarbonyl)piperidine-1-carbonyl)benzenesulfonamide]
5.62 | 3240 | Cc1ccc(/C=N/NC(=O)C2CCN(C(=O)c3ccc(S(N)(=O)=O)cc3)CC2)cc1 [compound 6, (E)-4-(4-(2-(4-methylbenzylidene)hydrazinecarbonyl)piperidine-1-carbonyl)benzenesulfonamide]
2.94 | 45.5 | COc1ccccc1/C=N/NC(=O)C1CCN(C(=O)c2ccc(S(N)(=O)=O)cc2)CC1 [compound 7, (E)-4-(4-(2-(2-methoxybenzylidene)hydrazinecarbonyl)piperidine-1-carbonyl)benzenesulfonamide]
44.3 | 382 | COc1cccc(/C=N/NC(=O)C2CCN(C(=O)c3ccc(S(N)(=O)=O)cc3)CC2)c1 [compound 8, (E)-4-(4-(2-(3-methoxybenzylidene)hydrazinecarbonyl)piperidine-1-carbonyl)benzenesulfonamide]
4.48 | 389 | COc1ccc(/C=N/NC(=O)C2CCN(C(=O)c3ccc(S(N)(=O)=O)cc3)CC2)cc1 [compound 9, (E)-4-(4-(2-(4-methoxybenzylidene)hydrazinecarbonyl)piperidine-1-carbonyl)benzenesulfonamide]
160 | 1890 | COc1ccc(/C=N/NC(=O)C2CCN(C(=O)c3ccc(S(N)(=O)=O)cc3)CC2)c(OC)c1 [compound 10, (E)-4-(4-(2-(2,4-dimethoxybenzylidene)hydrazinecarbonyl)piperidine-1-carbonyl)benzenesulfonamide]
55.1 | 344 | COc1ccc(/C=N/NC(=O)C2CCN(C(=O)c3ccc(S(N)(=O)=O)cc3)CC2)cc1OC [compound 11, (E)-4-(4-(2-(3,4-dimethoxybenzylidene)hydrazinecarbonyl)piperidine-1-carbonyl)benzenesulfonamide]
1.75 | 24.3 | COc1ccc(OC)c(/C=N/NC(=O)C2CCN(C(=O)c3ccc(S(N)(=O)=O)cc3)CC2)c1 [compound 12, (E)-4-(4-(2-(2,5-dimethoxybenzylidene)hydrazinecarbonyl)piperidine-1-carbonyl)benzenesulfonamide]
3.78 |  | COc1cc(OC)c(OC)cc1/C=N/NC(=O)C1CCN(C(=O)c2ccc(S(N)(=O)=O)cc2)CC1 [compound 13, (E)-4-(4-(2-(2,4,5-trimethoxybenzylidene)hydrazinecarbonyl)piperidine-1-carbonyl)benzenesulfonamide]
67.6 | 384 | COc1cc(/C=N/NC(=O)C2CCN(C(=O)c3ccc(S(N)(=O)=O)cc3)CC2)cc(OC)c1OC [compound 14, (E)-4-(4-(2-(3,4,5-trimethoxybenzylidene)hydrazinecarbonyl)piperidine-1-carbonyl)benzenesulfonamide]
65.5 | 1540 | COc1ccc(/C=N/NC(=O)C2CCN(C(=O)c3ccc(S(N)(=O)=O)cc3)CC2)c(Br)c1OC [compound 15, (E)-4-(4-(2-(2-bromo-3,4-dimethoxybenzylidene)hydrazinecarbonyl)piperidine-1-carbonyl)benzenesulfonamide]
209 | 4000 | NS(=O)(=O)c1ccc(C(=O)N2CCC(C(=O)N/N=C/c3ccc4ccccc4c3)CC2)cc1 [compound 16, (E)-4-(4-(2-((naphthalen-2-yl)methylene)hydrazinecarbonyl)piperidine-1-carbonyl)benzenesulfonamide]
25.2 | 334 | COc1c(/C=N/NC(=O)C2CCN(C(=O)c3ccc(S(N)(=O)=O)cc3)CC2)ccc2ccccc12 [compound 17, (E)-4-(4-(2-((1-methoxynaphthalen-2-yl)methylene)hydrazinecarbonyl)piperidine-1-carbonyl)benzenesulfonamide]
37.4 | 1750 | NS(=O)(=O)c1ccc(C(=O)N2CCC(C(=O)N/N=C/c3ccc(C(F)(F)F)cc3)CC2)cc1 [compound 18, (E)-4-(4-(2-(4-(trifluoromethyl)benzylidene)hydrazinecarbonyl)piperidine-1-carbonyl)benzenesulfonamide]
92.4 | 392 | NS(=O)(=O)c1ccc(C(=O)N2CCC(C(=O)N/N=C/c3cccc(F)c3)CC2)cc1 [compound 19, (E)-4-(4-(2-(3-fluorobenzylidene)hydrazinecarbonyl)piperidine-1-carbonyl)benzenesulfonamide]
17.1 | 340 | NS(=O)(=O)c1ccc(C(=O)N2CCC(C(=O)N/N=C/c3ccc(F)cc3)CC2)cc1 [compound 20, (E)-4-(4-(2-(4-fluorobenzylidene)hydrazinecarbonyl)piperidine-1-carbonyl)benzenesulfonamide]
46.2 | 1820 | NS(=O)(=O)c1ccc(C(=O)N2CCC(C(=O)N/N=C/c3cccc([N+](=O)[O-])c3)CC2)cc1 [compound 21, (E)-4-(4-(2-(3-nitrobenzylidene)hydrazinecarbonyl)piperidine-1-carbonyl)benzenesulfonamide]
4.92 | 384 | NS(=O)(=O)c1ccc(C(=O)N2CCC(C(=O)N/N=C/c3ccc([N+](=O)[O-])cc3)CC2)cc1 [compound 22, (E)-4-(4-(2-(4-nitrobenzylidene)hydrazinecarbonyl)piperidine-1-carbonyl)benzenesulfonamide]
6.51 | 482 | NS(=O)(=O)c1ccc(C(=O)N2CCC(C(=O)N/N=C/c3ccccc3Cl)CC2)cc1 [compound 23, (E)-4-(4-(2-(2-chlorobenzylidene)hydrazinecarbonyl)piperidine-1-carbonyl)benzenesulfonamide]
55.4 | 398 | NS(=O)(=O)c1ccc(C(=O)N2CCC(C(=O)N/N=C/c3cccc(Cl)c3)CC2)cc1 [compound 24, (E)-4-(4-(2-(3-chlorobenzylidene)hydrazinecarbonyl)piperidine-1-carbonyl)benzenesulfonamide]
6.65 | 336 | NS(=O)(=O)c1ccc(C(=O)N2CCC(C(=O)N/N=C/c3ccc(Cl)cc3Cl)CC2)cc1 [compound 25, (E)-4-(4-(2-(2,4-dichlorobenzylidene)hydrazinecarbonyl)piperidine-1-carbonyl)benzenesulfonamide]
3.64 | 800 | NS(=O)(=O)c1ccc(C(=O)N2CCC(C(=O)N/N=C/c3cc(Cl)ccc3Cl)CC2)cc1 [compound 26, (E)-4-(4-(2-(2,5-dichlorobenzylidene)hydrazinecarbonyl)piperidine-1-carbonyl)benzenesulfonamide]
3.57 | 24.6 | NS(=O)(=O)c1ccc(C(=O)N2CCC(C(=O)N/N=C/c3c(Cl)cccc3Cl)CC2)cc1 [compound 27, (E)-4-(4-(2-(2,6-dichlorobenzylidene)hydrazinecarbonyl)piperidine-1-carbonyl)benzenesulfonamide]

From article PMC9822402, “Investigation on Hydrazonobenzenesulfonamides as Human Carbonic Anhydrase I, II, IX and XII Inhibitors” (Molecules, 2022)
